Experimental data reported in ChEMBL document CHEMBL1201862, “PubChem BioAssay data set” (2004).
Activity calls are given as the source filed them.

Experiments:
[1] = target: T1, Endoribonuclease toxin MazF (Escherichia coli K-12, UniProt P0AE70); assay: activation of MazEF endoribonuclease cleavage – biochemical, fluorescence, single-stranded RNA substrate, uHTS hits, dose response (AID 588481); type: functional
T1 sequence (P0AE70 whole entry): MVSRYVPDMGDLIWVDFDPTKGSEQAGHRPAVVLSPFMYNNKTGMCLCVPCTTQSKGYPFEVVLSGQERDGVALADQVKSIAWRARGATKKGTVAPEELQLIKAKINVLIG

Fibrinogen beta chain [2] = target: T2, Fibrinogen beta chain (Homo sapiens, UniProt P02675); assay: Fluorescence polarization-based biochemical high throughput dose response assay to identify inhibitors that disrupt the binding of a cyclic peptide (Tn7) to the fibrin proteolytic product D-Dimer and fragment E complex [DD(E )].
T2 sequence (P02675 whole entry, the tested form may be a part): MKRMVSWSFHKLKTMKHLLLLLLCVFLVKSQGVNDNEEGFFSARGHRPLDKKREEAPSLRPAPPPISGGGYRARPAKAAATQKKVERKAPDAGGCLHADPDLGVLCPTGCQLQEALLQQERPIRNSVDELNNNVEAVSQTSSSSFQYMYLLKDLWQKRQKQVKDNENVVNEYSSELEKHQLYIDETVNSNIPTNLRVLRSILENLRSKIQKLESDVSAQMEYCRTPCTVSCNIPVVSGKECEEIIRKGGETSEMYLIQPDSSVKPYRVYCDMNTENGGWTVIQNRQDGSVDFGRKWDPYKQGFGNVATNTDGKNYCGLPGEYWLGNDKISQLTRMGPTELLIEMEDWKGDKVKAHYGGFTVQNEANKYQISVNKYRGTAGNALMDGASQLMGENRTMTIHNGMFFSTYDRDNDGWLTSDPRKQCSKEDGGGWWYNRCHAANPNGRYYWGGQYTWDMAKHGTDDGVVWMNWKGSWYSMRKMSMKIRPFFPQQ

[3] = target: T1, Endoribonuclease toxin MazF; assay: substrate-only fluorescence increase artefacts – biochemical, single-stranded RNase substrate, counter-screen for MazEF activator project, dose response (AID 588502); type: functional
Fibrinogen beta chain [4] = target: T2, Fibrinogen beta chain; assay: Fluorescence polarization-based biochemical high throughput dose response assay to identify inhibitors that disrupt the binding of a cyclic peptide (Tn6) to the fibrin proteolytic product D-Dimer and fragment E complex [DD(E )].
[5] = viability loss in HEK293 cells – cell-based, luminescence, dry powder, set 12, cytotoxicity control, dose response (AID 743354); type: functional
14-3-3 protein gamma = 14-3-3 protein gamma (Homo sapiens, UniProt P61981); assay: modulators of 14-3-3 gamma client binding – dose response (AID 711); type: functional
Sequence of 14-3-3 protein gamma (P61981 whole entry): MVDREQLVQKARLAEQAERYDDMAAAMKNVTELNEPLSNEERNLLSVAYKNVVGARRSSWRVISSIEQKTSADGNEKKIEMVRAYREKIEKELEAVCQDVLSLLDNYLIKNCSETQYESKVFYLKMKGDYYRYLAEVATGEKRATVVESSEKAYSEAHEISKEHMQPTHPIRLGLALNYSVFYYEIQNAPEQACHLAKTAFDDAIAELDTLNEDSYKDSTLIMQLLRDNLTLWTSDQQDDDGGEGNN

[6] = target: RNA-editing ligase 1, mitochondrial (Trypanosoma brucei brucei, UniProt P86926); assay: inhibition of trypanosome RNA editing ligase – biochemical, fluorescence, Trypanosoma brucei, dose response (AID 1117295); type: functional
Sequence of RNA-editing ligase 1, mitochondrial (P86926 whole entry): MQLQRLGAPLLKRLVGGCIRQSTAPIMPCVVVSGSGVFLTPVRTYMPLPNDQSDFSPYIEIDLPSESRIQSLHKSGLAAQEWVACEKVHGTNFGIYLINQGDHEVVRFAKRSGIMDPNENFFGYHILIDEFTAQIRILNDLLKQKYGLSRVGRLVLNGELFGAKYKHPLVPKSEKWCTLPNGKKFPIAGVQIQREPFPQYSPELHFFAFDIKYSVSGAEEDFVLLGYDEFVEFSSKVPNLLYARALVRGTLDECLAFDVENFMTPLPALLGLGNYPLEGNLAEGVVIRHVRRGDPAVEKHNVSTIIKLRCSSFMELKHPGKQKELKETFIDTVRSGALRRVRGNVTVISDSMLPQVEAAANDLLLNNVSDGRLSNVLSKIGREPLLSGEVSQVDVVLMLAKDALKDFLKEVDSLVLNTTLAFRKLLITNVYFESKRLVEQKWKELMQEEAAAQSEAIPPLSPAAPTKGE

[7] = target: Sphingosine 1-phosphate receptor 2 (Homo sapiens, UniProt O95136); assay: Dose Response Cell Based Assay for Agonists of the S1P2 Receptor. [Related pubchem assays: 729, 736, 843 ]; type: functional
Sequence of Sphingosine 1-phosphate receptor 2 (O95136 whole entry): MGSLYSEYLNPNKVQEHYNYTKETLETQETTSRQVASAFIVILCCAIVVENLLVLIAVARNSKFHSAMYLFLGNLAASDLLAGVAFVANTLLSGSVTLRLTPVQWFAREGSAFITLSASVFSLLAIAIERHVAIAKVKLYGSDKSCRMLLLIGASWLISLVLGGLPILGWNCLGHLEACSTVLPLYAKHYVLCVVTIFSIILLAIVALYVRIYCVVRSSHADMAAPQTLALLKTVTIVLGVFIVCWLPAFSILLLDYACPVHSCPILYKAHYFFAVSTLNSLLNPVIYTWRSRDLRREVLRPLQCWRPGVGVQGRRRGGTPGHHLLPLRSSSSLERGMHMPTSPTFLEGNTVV

[8] = viability loss in human Jurkat cells – cell-based, luminescence, cytotoxicity control for P. falciparum gametocyte viability project, dose response (AID 1117277); type: functional;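 further: potency reflects loss of cellular ATP meaning fewer viable cells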
[9] = viability inhibitors of stage V gametocytes – luminescence, dose response (AID 1117278); type: functional, cell-based;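 further: gametocytes exposed to compound for 24 hours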
[10] = HCT116 cell viability decrease, GSK3B pretreatment – CellTiter-Glo, IC50, dose response (AID 1117339); type: functional; conditions: HCT-116
[11] = cytotoxicity toward HCT116 cells – cell-based, CellTiter-Glo luminescence, IC50, dose response (AID 1117332); type: functional; conditions: HCT-116
[12] = cytotoxicity toward HT-29 cells – cell-based, CellTiter-Glo luminescence, IC50, dose response (AID 1117330); type: functional
[13] = cytotoxicity toward Colo320 cells – cell-based, CellTiter-Glo luminescence, IC50, dose response (AID 1117334); type: functional; conditions: COLO 320
[14] = CellTiter-Glo luminescence survival assay, SW480 colon tumor line, concentration-response curve, half-maximal inhibitory concentration (AID 1117338); type: functional
[15] = SNU-C1 cell viability reduction, dose response, CellTiter-Glo luminescence (AID 1117323); type: functional, cell-based
[16] = Reduced DLD-1 viability, concentration-response, CellTiter-Glo luminescence (AID 1117352); type: functional
[17] = RKO cell viability reduction, dose response, CellTiter-Glo luminescence (AID 1117322); type: functional
Protein Tat = Protein Tat (Human immunodeficiency virus type 1 group M subtype B (isolate HXB2)(HIV-1), UniProt P04608); type: functional;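 further: tat binding to TAR RNA read out by fluorescence polarization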
Sequence of Protein Tat (P04608 whole entry): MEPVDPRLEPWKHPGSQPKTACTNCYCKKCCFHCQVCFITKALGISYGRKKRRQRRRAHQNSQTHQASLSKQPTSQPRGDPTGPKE

[18] = IC50 of insulin release inhibition, rat insulinoma INS-1E line, 5 mM glucose, cell-based (AID 1117331); type: functional
Cytochrome P450 1A2 = target: T3, Cytochrome P450 1A2 (Homo sapiens, UniProt P05177);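 further: PubChem cytochrome P450 panel assay, CYP1A2 panel member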
T3 sequence (P05177 whole entry): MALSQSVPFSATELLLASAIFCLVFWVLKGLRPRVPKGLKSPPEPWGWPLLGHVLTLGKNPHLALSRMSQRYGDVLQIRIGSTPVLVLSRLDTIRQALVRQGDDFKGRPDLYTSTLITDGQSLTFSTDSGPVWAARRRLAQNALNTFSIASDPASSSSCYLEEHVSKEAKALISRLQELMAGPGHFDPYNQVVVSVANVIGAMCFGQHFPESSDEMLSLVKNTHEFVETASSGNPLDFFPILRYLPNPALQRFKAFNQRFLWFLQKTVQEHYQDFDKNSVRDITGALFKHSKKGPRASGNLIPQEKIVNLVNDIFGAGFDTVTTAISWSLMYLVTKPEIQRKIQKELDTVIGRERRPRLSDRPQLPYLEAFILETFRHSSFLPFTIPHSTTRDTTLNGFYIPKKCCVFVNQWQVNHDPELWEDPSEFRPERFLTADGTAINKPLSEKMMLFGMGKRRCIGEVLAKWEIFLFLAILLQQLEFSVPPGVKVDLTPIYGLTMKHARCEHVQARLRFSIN

Cytochrome P450 3A4 = Cytochrome P450 3A4 (Homo sapiens, UniProt P08684);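 further: CYP3A4 tested as one member of a cytochrome P450 panel screen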
Sequence of Cytochrome P450 3A4 (P08684 whole entry): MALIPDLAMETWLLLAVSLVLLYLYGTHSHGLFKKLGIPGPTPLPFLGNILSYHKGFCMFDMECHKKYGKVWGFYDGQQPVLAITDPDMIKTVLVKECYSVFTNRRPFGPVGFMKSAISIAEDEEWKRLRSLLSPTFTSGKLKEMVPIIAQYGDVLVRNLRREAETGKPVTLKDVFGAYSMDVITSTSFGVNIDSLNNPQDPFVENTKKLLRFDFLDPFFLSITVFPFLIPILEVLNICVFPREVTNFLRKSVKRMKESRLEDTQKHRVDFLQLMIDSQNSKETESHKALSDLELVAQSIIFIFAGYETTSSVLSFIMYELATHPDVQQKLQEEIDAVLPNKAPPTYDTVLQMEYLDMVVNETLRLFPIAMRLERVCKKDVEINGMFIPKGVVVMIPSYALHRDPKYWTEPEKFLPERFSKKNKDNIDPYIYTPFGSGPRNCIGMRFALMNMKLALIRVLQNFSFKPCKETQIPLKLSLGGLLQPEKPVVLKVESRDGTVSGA

Cc1ccc2c(c1)[C@H]1[C@H](CO2)[C@H](c2ccccc2)[C@]2(C)C(=O)N(Cc3ccc(F)cc3)CC(=O)N12
EC50 [1]: 3.83 µM (active)
IC50 (Fibrinogen beta chain [2]): > 83.3 µM (inactive)
EC50 [3]: 63.9 µM (inactive)
IC50 (Fibrinogen beta chain [4]): > 83.3 µM (inactive)

CC(=O)c1ccc(N2CCN(C(=O)c3ccccc3F)CC2)cc1
AC50 [5]: > 52 µM (inactive)

O=C(Cn1cc2c(n1)CCCC2)NCc1ccccn1
IC50 (14-3-3 protein gamma): 25.6 µM (active)

C[C@@H](NCCCn1cnc2c(OCc3ccccc3)ncnc21)c1cccc2ccccc12
IC50 [6]: > 96.6 µM (inactive)

COCCNC(=O)CN1CCN(C(c2ccccc2)c2ccccc2)CC1
EC50 [7]: > 50 µM (not active)

COc1ccc(C2CC(c3cccs3)=NN2C(=O)CSc2nnc(N)s2)cc1OC (configuration not stated)
IC50 [8]: > 83.3 µM (inactive)
IC50 [9]: > 109 µM (inactive)

NC(=O)n1c(O)c(C(=O)c2cccs2)c2cc(Cl)ccc21
IC50 [10]: 3.79 µM (active)
IC50 [11]: 2.31 µM (active)
IC50 [12]: 5.6 µM (inactive)
IC50 [13]: 1.64 µM (active)
IC50 [14]: 1.02 µM (active)
IC50 [15]: 0.537 µM (active)
IC50 [16]: 6.95 µM (inactive)
IC50 [17]: 4.7 µM (active)

CCOc1ccc(-n2c(Cc3cc(O)nc(O)n3)nnc2SCC(=O)NC2CCCC2)cc1
IC50 (Protein Tat): > 100 µM (active)

O=C(CCCN1CCC(O)(c2ccc(Br)cc2)CC1)c1ccc(F)cc1 [BROMPERIDOL]
IC50 [18]: > 33.3 µM (inactive)
AC50 (Cytochrome P450 1A2): 5.01 µM (inconclusive)
AC50 (Cytochrome P450 3A4): inconclusive
